What was measured:
[1] = test system: patient with stage 4 terminal pancreatic cancer
Procedure: (§1) A patient with stage 4 terminal pancreatic cancer (person) breathed a mixed gas of hydrogen and air using a gaseous hydrogen inhalation apparatus (MHG-2000α (registered trademark); MiZ Company Limited) for about 1 to 3 hours per day over about 8 months. The hydrogen concentration in MHG-2000α is about 6 to 7% by volume (hydrogen generation rate: about 140 ml/min).

[2] = normal temperature and normal pressure; cited from earlier work
[3] = test system: patient with terminal pancreatic cancer; conditions: person
Procedure: A patient with terminal pancreatic cancer (person) breathed a mixed gas of hydrogen and air using a gaseous hydrogen inhalation apparatus (MHG-2000α (registered trademark); MiZ Company Limited) over about 4 months. Here, the mixed gas of hydrogen and air was breathed twice a week (duration each time: 1 to 3 hours) over first 2 months and for about 24 hours per day over subsequent 2 months. The hydrogen concentration in MHG-2000α is about 6 to 7% by volume (hydrogen generation rate: about 140 ml/min).

[4] = test system: patient with terminal systemic metastatic cancer; conditions: person, 3 times about 2 hours each over about 1 month
Procedure: as §1, with “with” for “with stage 4”, “systemic metastatic” for “pancreatic”, “Limited, Kanagawa, Japan) total 3 times” for “Limited)”, “2” for “1 to 3”, “each time” for “per day”, “1 month before death of the patient.” for “8 months.”

[5] = about 6 to 7% by volume hydrogen over about 4 months
[6] = about 6 to 7% by volume hydrogen

For `[HH]` [hydrogen gas, molecular hydrogen], the “blood level of CA19-9 (pancreatic cancer marker)” value ([1]; about 6 months after the breathing of hydrogen gas, FIG. 1) was “sharply decreased”, the physical fatigue ([1]; after the first breathing) was “hardly complained about physical fatigue” and the “survival after being told life expectancy of 3 months” value ([1]; person, stage 4, breathing about 1 to 3 hours per day) was no less than 9 months. For the same molecule, the “growth of cancer by CT imaging examination once a month” value ([1]; person, about 6 to 7% by volume hydrogen, about 1 to 3 hours per day over about 8 months) was “no tendency of growth of cancer”, the solubility in water [2] was “about 1.6 ppm” and the appetite [3, 5] was “had appetite”. The insomnia [3, 5] was “improved in insomnia”, the cancerous pain ([3]; about 6 to 7% by volume hydrogen over about 4 months (twice a week 1 to 3 hours for 2 months, then about 24 hours per day for 2 months), no opioid) was “did not complain about pain or oppression” and the appetite [4, 6] was “recovered”. For the same molecule, the complexion [4, 6] was “improved” and the cancerous pain ([4]; mixed gas of hydrogen and air, about 6 to 7% by volume, no opioid) was “reduced”.
